Bridge positions count the residues as written; N and C are the ends. Ends that are not written are not given here. Peptide text beside a SMILES is read from it. I, II: the chains in the order shown.
How the values were obtained:
[1] = tested on: HeLa cells; assay: GFP-NLS protein transduction assay (flow cytometry: Pos cells %, viability %, relative fluorescence intensity; microscopy)
[2] = in vitro; details: human, HeLa cells
[3] = in vitro; details: human, HeLa cells; remark: listed apart in the source
[4] = Table B3, HeLa cells, GFP-NLS cargo
[5] = Cell viability (%) (±St. Dev.; n = 3)
[6] = Cell viability (%) (±St Dev.; n = 3)
[7] = Table 10.3a, Protocol B, HeLa, shuttle 50 μM, GFP-NLS 5 μM, 10 seconds
[8] = Table 10.3e, Protocol B, HeLa, shuttle 20 μM, GFP-NLS 5 μM, 1 minute

For “HHHHHHLLKLWSRLLKLWTQALRALAKRAKALAHHHHHH [FSN6]”, the “Mean % cells with GFP signal (±St Dev.; n = 3)” value (shortened to “Mean % cells … (±St Dev.; n = 3)”) [1, 4] was 15.74 ± 1.63% and the viability [2, 5] was 32.6 ± 4.26%.
With “HHHHHHKWAKLLRAFAKAIKKLYARLARRQARTGHHHHHH [FSD13]” the viability [2, 6] was 49.5 ± 5.13%.
In the case of “HHHHHHKKALLALALHHLAHLALHLALALKKAYARAAARQARA [His--PTD4]”, the “Cell viability (%) (±St. Dev.; n = 3)” value [1, 7] is reported as 98 ± 1.5%.
In the case of `CC(C)C[C@H](NC(=O)[C@H](CC(C)C)NC(=O)[C@H](CCCNC(=N)N)NC(=O)[C@H](CCCNC(=N)N)NC(=O)[C@H](Cc1c[nH]c2ccccc12)NC(=O)[C@H](CC(C)C)NC(=O)[C@H](Cc1ccc(O)cc1)NC(=O)[C@H](CC(C)C)NC(=O)[C@H](CC(C)C)NC(=O)[C@H](Cc1c[nH]cn1)NC(=O)[C@H](Cc1c[nH]cn1)NC(=O)[C@H](Cc1c[nH]cn1)NC(=O)[C@H](Cc1c[nH]cn1)NC(=O)[C@H](Cc1c[nH]cn1)NC(=O)[C@@H](N)Cc1c[nH]cn1)C(=O)N[C@@H](CCCCN)C(=O)N[C@@H](Cc1ccccc1)C(=O)N[C@@H](Cc1c[nH]c2ccccc12)C(=O)N[C@@H](CS)C(=O)N[C@@H](C)C(=O)NCC(=O)N[C@@H](CCCNC(=N)N)C(=O)N[C@@H](CCCNC(=N)N)C(=O)N[C@H](C(=O)N[C@@H](Cc1ccc(O)cc1)C(=O)N[C@@H](C)C(=O)N[C@@H](CCCCN)C(=O)N[C@@H](CS)C(=O)N[C@@H](C)C(=O)N[C@@H](CCCCN)C(=O)N[C@@H](C)C(=O)N[C@@H](Cc1ccc(O)cc1)C(=O)NCC(=O)N[C@@H](CS)C(=O)N[C@@H](Cc1ccccc1)C(=O)O)C(C)C` [FSN4] (H-HHHHHHLLYLWRRLLKFWCAGRRVYAKCAKAYGCF-OH; N-terminus and C-terminus assumed), the “Mean % cells … (±St Dev.; n = 3)” value [1, 4] is reported as 5.84 ± 0.49% and the viability [2, 5] is reported as 90.5 ± 4.18%.
“KWKLFKKIGAVLKVLTTGYARAAARQARAHHHHHH [CM18-PTD4-His]” gave a viability [3] of 29.5 ± 0.21%.
For “LHHHSHHLIHIWLLFKLKLKKKKAARRARRARRHH [FSD29]”, the viability at 1 min, 10 µM [2, 5] was 89.8 ± 8.48%.
Work on “RLHHSHHLIHIWLLFKLKLKKKKRAARRARRHHHL [FSD37]” yielded a viability at 1 min, 10 µM [2, 5] of 73.9 ± 2.62%.
In the case of “HHHHHHKRQLKRKLRKWKRLLRLLRLLARLWLHHHHHH [FSD4]”, the viability [2, 6] is reported as 86.1 ± 8.15%.
With `N=C(N)NCCC[C@H](NC(=O)[C@H](CCCNC(=N)N)NC(=O)[C@H](CCCNC(=N)N)NC(=O)[C@H](CCC(N)=O)NC(=O)[C@H](CCCNC(=N)N)NC(=O)[C@H](CCCNC(=N)N)NC(=O)[C@H](CCCCN)NC(=O)[C@H](CCCCN)NC(=O)[C@H](CCCNC(=N)N)NC(=O)CNC(=O)[C@@H](N)Cc1ccc(O)cc1)C(=O)O` [TAT, reference compound] the “Mean % cells with GFP signal (±St. Dev.; n = 3)” value ([1]; Table 10.4, Protocol B, HeLa, peptide 50 μM, GFP-NLS 5 μM, 10 seconds) was 1.1 ± 0.27%, the “GFP-NLS transduction (flow cytometry, in words)” value ([1]; peptide 50 μM, GFP-NLS 5 μM, 10 seconds, Protocol B) was “not able to successfully transduce GFP-NLS” and the viability at 10 s, 50 µM [2] was 94.6 ± 0.44%.
For “KWKLFKKIGAVLKVLTTGHHHHHHYARAAARQARA [CM18-His-PTD4]”, the “Cell viability (%) (±St. Dev.; n = 3)” value [1, 8] was 57.7 ± 4.2%.
For “HHHHHHKRKKKRRAKKKRAWLYLALLLWALALHHHHHH [FSD3]”, the viability [2, 6] was 91.1 ± 6.37%.
With “WEAKLAKALAKALAKHLAKALAKALKACEA [KALA, reference compound]” the viability [3] was 90.6 ± 4.16%.
In the case of “HHHHHHKWKLFKKIGAVLKVLTTGYGRKKRRQRRRC [His-CM18-TAT-Cys]”, the “Mean % cells with GFP signal (±St. Dev.; n = 3)” value [1, 7] is reported as 49.3 ± 4.1% and the viability at 10 s, 50 µM [2] is reported as 41.4 ± 3.91%.
In the case of “HHHHHHKWKLFKKIGAVLKVLTTGGWTLNSAGYLLKINLKALAALAKKIL [His-CM18-Transportan (TPT)]”, the “Cell viability (%) (±St. Dev.; n = 3)” value ([1]; Table 10.1, Protocol B, HeLa, shuttle 50 μM, GFP-NLS 5 μM, 10 seconds) is reported as 41.3 ± 3.3% and the “Cell viability (%) (±St. Dev.; n = 3)” value [1, 7] is reported as 41.3 ± 3.29%.
For “HHHHHHLALARWARYFRILAKLKRTKRGQAKAHHHHHH [FSD14]”, the viability [2, 6] was 92.8 ± 7.42%.
In the case of “MHHHHHHKWKLFKKIGAVLKVLTTGYGRKKRRQRRRC [M-His-CM18-TAT-Cys]”, the viability [3] is reported as 33.1 ± 0.4%.
With HHHHHHFRKLWLAIVRAKK [FSN8] the viability [2, 5] was 94.5 ± 3.72%.
Work on LIKLWSRFIKFWTQGRRIKAKLARAGQSWFG [FSN7] yielded a viability [2, 5] of 93.5 ± 3.61%.
For “HHHHHHKWKLLRRAAKKAARRYLKLLLKQLKLHHHHHH [FSD1]”, the viability [2, 6] was 60.3 ± 6.18%.
With “MHHHHHHKWKLFKKIGAVLKVLTTGYARAAARQARAC [Met-His-CM18-PTD4-Cys]” the “Mean % cells … (±St Dev.; n = 3)” value [1, 8] was 45.6 ± 3.88%.
`CSCC[C@H](NC(=O)[C@H](CCCCN)NC(=O)[C@H](CC(N)=O)NC(=O)[C@H](CC(C)C)NC(=O)[C@H](Cc1c[nH]c2ccccc12)NC(=O)[C@H](Cc1ccccc1)NC(=O)[C@H](CS)NC(=O)[C@H](CC(C)C)NC(=O)[C@H](Cc1ccccc1)NC(=O)[C@H](CCC(N)=O)NC(=O)[C@H](Cc1c[nH]cn1)NC(=O)[C@H](Cc1c[nH]cn1)NC(=O)[C@H](Cc1c[nH]cn1)NC(=O)[C@H](Cc1c[nH]cn1)NC(=O)[C@H](Cc1c[nH]cn1)NC(=O)[C@@H](N)Cc1c[nH]cn1)C(=O)NCC(=O)N[C@@H](CCCCN)C(=O)N[C@@H](Cc1c[nH]cn1)C(=O)N[C@@H](CC(N)=O)C(=O)N[C@H](C(=O)N[C@H](C(=O)N[C@@H](Cc1c[nH]c2ccccc12)C(=O)N[C@@H](Cc1c[nH]cn1)C(=O)NCC(=O)N[C@@H](CCCNC(=N)N)C(=O)N[C@@H](Cc1c[nH]cn1)C(=O)N[C@@H](CC(C)C)C(=O)N[C@@H](CCCCN)C(=O)N[C@@H](CS)C(=O)N[C@@H](Cc1c[nH]cn1)C(=O)N[C@@H](CCCCN)C(=O)N[C@@H](CCCNC(=N)N)C(=O)NCC(=O)N[C@@H](CCCCN)C(=O)NCC(=O)O)C(C)C)[C@@H](C)O` [FSN3] (H-HHHHHHQFLCFWLNKMGKHNTVWHGRHLKCHKRGKG-OH; N-terminus and C-terminus assumed) showed a viability [2, 5] of 97.2 ± 2.03%.
In the case of “HHHHHHKWKLFKKIGAVLKVLTTGGWTLNSAGYLLKINLKALAALAKKIL [His-CM18-Transportan]”, the viability [3] is reported as 11.9 ± 1.07%.
With “HHHHHHLLKLWRRLLKLFRKALRALAKRAKSALKRAQAA [FSN5]” the viability [2, 5] was 85.4 ± 6.16%.
`CC(C)C[C@H](NC(=O)[C@H](C)NC(=O)[C@H](CCCCN)NC(=O)[C@H](C)NC(=O)[C@H](CC(C)C)NC(=O)[C@H](CCCCN)NC(=O)[C@H](C)NC(=O)[C@H](CCC(=O)O)NC(=O)[C@H](Cc1c[nH]c2ccccc12)NC(=O)CNC(=O)[C@@H](NC(=O)[C@@H]1CCCN1C(=O)[C@H](CCCNC(=N)N)NC(=O)[C@H](CC(C)C)NC(=O)[C@H](CS)NC(=O)[C@@H](N)CC(C)C)C(C)C)C(=O)N[C@@H](C)C(=O)N[C@@H](CCCCN)C(=O)N[C@@H](C)C(=O)N[C@@H](CC(C)C)C(=O)N[C@@H](C)C(=O)N[C@@H](CCCCN)C(=O)N[C@@H](Cc1c[nH]cn1)C(=O)N[C@@H](CC(C)C)C(=O)N[C@@H](C)C(=O)N[C@@H](CCCCN)C(=O)N[C@@H](C)C(=O)N[C@@H](CC(C)C)C(=O)N[C@@H](C)C(=O)N[C@@H](CCCCN)C(=O)N[C@@H](C)C(=O)N[C@@H](CC(C)C)C(=O)N[C@@H](CCCCN)C(=O)N[C@@H](C)C(=O)N[C@@H](CS)C(=O)N[C@@H](CCC(=O)O)C(=O)N[C@@H](C)C(=O)O` [Xentry-KALA] (H-LCLRPVGWEAKLAKALAKALAKHLAKALAKALKACEA-OH) gave a viability [3] of 75.3 ± 4.29%.
“HHHHHHWYLALLALYWQRAKAKTRQRRRHHHHHH [FSD6]” gave a viability [2, 6] of 88.1 ± 7.66%.
With “HHHHHHKWKLFKKIGAVLKVLTTGYARAAARQARACCCCCC (cysteines drawn unpaired) [His-CM18-PTD4-6Cys]” the “Mean % cells … (±St Dev.; n = 3)” value [1, 8] was 41.3 ± 4.28%.
With “HHHHHHKLKLRSRLKWGRTQLWRALAKKALLHHHHHH [FSN2]” the “Mean % cells … (±St Dev.; n = 3)” value [1, 4] was 12.13 ± 2.06% and the viability [2, 5] was 91.3 ± 4.66%.
“I: KWKLFKKIGAVLKVLTTGRQIKIWFQNRRMKWKKC / II: KWKLFKKIGAVLKVLTTGRQIKIWFQNRRMKWKKC (disulfide I:35-II:35) [dCM18-Pen-Cys]” gave a viability [3] of 3.36 ± 0.26%.
For “HHHHHHKRKRRSKKRKLWTQGWLLLALLALAHHHHHH [FSN1]”, the “Mean % cells … (±St Dev.; n = 3)” value [1, 4] was 9.14 ± 0.93% and the viability [2] was 94.3 ± 3.07%.
In the case of “HHHHHHLAKLFKWLRALIRQGAKRKTKRASAHHHHHH [FSD17]”, the viability [2, 6] is reported as 99.1 ± 2.09%.
